Experimental data from patent publication US10265411B2, “N-optionally substituted aryl-2-oligomer-3-alkoxypropionamides” (Nektar Therapeutics, priority 2010, dated 2019).
Read-outs that look alike come from different tables or passages of the source.

Tests used:
[1] = biological target: T1, cloned hNav1.8 channels expressed in CHO cells (Homo sapiens, UniProt Q9Y5Y9); experiment: Na+ channel blocking examination, automated whole-cell patch clamp (IonWorks Quattro); assay type: cell-based; conditions: for IC50: hNav1.8 in CHO cells; for block of hNav1.8 channels in the inactivated state, potency relative to control (lacosamide): in words
T1 construct: expressed in transfected cells
T1 sequence (Q9Y5Y9 whole entry): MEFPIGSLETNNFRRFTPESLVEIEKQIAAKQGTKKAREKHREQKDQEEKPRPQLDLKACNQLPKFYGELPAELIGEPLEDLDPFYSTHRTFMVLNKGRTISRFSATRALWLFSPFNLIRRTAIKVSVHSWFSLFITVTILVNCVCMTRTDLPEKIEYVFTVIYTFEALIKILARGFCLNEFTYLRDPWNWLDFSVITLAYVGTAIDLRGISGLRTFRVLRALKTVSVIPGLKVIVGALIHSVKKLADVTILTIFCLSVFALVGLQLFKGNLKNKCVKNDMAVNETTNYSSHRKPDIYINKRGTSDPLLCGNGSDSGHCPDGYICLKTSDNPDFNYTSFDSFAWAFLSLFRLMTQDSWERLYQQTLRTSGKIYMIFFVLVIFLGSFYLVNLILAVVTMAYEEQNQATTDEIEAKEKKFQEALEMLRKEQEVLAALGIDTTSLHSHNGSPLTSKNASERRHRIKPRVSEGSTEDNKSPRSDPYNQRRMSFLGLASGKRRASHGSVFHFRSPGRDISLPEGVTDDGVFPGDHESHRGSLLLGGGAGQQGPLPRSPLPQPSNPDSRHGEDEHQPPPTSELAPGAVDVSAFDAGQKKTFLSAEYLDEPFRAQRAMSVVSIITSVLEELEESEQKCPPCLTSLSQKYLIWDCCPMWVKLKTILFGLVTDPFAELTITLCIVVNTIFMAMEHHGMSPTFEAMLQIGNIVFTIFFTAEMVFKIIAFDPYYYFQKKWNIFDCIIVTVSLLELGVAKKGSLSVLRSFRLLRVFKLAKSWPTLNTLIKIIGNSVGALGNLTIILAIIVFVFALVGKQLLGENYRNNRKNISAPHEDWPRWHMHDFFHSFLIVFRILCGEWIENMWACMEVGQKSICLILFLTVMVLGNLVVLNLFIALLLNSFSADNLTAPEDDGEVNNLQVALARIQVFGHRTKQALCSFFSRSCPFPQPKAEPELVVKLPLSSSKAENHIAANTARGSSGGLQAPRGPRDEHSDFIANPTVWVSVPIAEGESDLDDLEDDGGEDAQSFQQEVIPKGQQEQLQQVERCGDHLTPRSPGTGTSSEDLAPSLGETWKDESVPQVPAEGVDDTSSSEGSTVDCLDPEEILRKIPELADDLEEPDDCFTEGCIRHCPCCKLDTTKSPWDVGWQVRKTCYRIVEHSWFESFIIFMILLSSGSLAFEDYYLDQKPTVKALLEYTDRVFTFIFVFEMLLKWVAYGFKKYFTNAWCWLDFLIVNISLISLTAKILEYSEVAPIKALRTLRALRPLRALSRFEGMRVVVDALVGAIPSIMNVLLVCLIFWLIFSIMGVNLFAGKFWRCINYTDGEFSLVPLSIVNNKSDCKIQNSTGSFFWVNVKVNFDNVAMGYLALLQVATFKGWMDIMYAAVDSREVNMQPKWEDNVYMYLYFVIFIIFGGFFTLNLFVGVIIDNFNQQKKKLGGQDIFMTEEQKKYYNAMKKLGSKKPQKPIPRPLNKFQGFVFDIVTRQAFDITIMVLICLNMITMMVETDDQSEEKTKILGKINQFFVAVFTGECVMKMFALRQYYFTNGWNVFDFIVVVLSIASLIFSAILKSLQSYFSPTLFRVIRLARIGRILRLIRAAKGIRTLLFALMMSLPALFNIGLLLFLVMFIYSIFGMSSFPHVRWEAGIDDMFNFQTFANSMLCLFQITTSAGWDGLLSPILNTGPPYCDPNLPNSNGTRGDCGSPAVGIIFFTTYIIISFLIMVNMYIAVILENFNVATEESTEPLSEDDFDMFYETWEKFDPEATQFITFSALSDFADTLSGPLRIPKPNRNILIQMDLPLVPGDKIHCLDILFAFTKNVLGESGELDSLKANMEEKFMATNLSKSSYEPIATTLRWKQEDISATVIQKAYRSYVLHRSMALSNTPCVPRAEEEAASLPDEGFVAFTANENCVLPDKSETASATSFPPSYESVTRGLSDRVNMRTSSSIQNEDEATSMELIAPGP
Procedure: Using an automated whole-cell patch-clamp approach, the in vitro effects of oligomer-containing compounds of the invention (synthesis described in Example 1) on cloned hNav1.8 channels expressed in CHO cells relative to control (lacosamide) were evaluated.
The procedures used in this experiment followed those set forth in Sheets et al. (2008) J Pharmacol Exp Ther 326(1):89-99. Briefly, automated patch clamp electrophysiological procedures were carried out in the IonWorks Quattro™ system (Molecular Devices Corporation, Union City Calif.). In preparation for a current recording session, intracellular solution (140 mM KCl, 5 mM MgCl2, 0.5 mM EGTA, 10 mM HEPES, 0.1 mg/mL amphotericin B) was loaded into the intracellular compartment of the Population Patch Clamp™ (PPC) planar electrode. CHO cells stably expressing the human Nav1.8 sodium channel subtype were suspended in HEPES-buffered physiological saline solution (137 mM NaCl, 4 mM KCl, 1.8 mM CaCl2, 1 mM MgCl2, 10 mM HEPES, 10 mM Glucose, pH adjusted to 7.4 with NaOH) and pipetted into the wells of the PPC planar electrode. After establishment of a whole-cell configuration (the perforated patch), membrane currents were recorded using patch clamp amplifier in the IonWorks Quattro™ system. Test article concentrations, loaded in a 384-well compound plate, were applied to naïve cells (one concentration per cell) via steel needles of a 48-channel pipettor. Each application consisted of addition of 6 μL of 2× concentrated test article solution to the total 12 μL final volume of the extracellular well of the PPC planar electrode. The PPC well contents were then mixed (three times) following addition of test article. All experiments were performed at ambient temperature.
Block of hNav1.8 sodium channel was measured using a stimulus voltage pattern shown in FIG. 1, and voltage potentials are indicated in Table 1. The pulse pattern was repeated twice (once before addition of test article and the other five minutes after test article addition). Peak current amplitudes were measured at three test pulses: TP1 (tonic block), TP11 (frequency-dependent block at 10 Hz), and TP12 (inactivated state block).
Data acquisition and analyses were performed using the IonWorks Quattro™ system operation software (version 2.0.2; Molecular Devices Corporation, Union City, Calif.). Inhibition potencies were estimated from concentration-response curves fitted using the Hill function: % Block=% VC+{(100−% VC)−(100−% VC)/[1+([Test]/IC50)^N]}, where [Test] is the concentration of test article, IC50 is the concentration of the test article producing half-maximal inhibition, N is the Hill coefficient, % VC is the percentage of the current run-down (the mean current inhibition at the vehicle control) and % Block is the percentage of ion channel current inhibited at each concentration of the test article.

[2] = Solubility of test articles in dosing vehicle 0.5% CMC; assay type: physicochemical; conditions: 0.5% CMC (carboxymethylcellulose)
[3] = system: formalin-induced paw licking in the mouse; experiment: Pain model: formalin-induced paw licking in the mouse; assay type: in vivo; conditions: for formalin-induced paw licking compared to saline, Phase 2: dose 200, PO, Phase 2 (15-30 minutes); for mice sedated / mice with splayed posture: 200 mg/kg orally
Procedure: In the formalin-induced paw licking model, a test compound is administered via oral gavage (“PO”) followed in thirty minutes by the subcutaneous injection of formalin to a hind paw of a mouse. Subcutaneous injection of formalin first causes a pain-inducing mechanical injury (involving bradykinin and substance P) in the first five minutes (“Phase 1”) followed by a pain-inducing inflammatory response (involving bradykinin, histamine, serotonin and prostaglandins) occurring between 15-30 minutes (“Phase 2”) following the formalin injection. Both pain-inducing stimuli causes a characteristic “paw licking” response. The amount of time spent licking the formalin-injected paw is measured during Phase 1 and Phase 2. If the test article has relatively good pain reducing properties, a reduction in the time spent licking the formalin-injected paw is observed compared to the saline control group. […] By measuring a series of test articles, it is possible to understand each test article's pain reducing activity relative to each other.

[4] = test pulse TP1 (tonic block), 5 min after test article addition, read-out: IC50, type of block: Tonic
[5] = test pulse TP11 (frequency-dependent block at 10 Hz), read-out: IC50, type of block: 10 Hz
[6] = test pulse TP12 (inactivated state block), read-out: IC50, type of block: Inactivated state
[7] = 30 min before formalin, in words

SMILES	IC50 [1, 4]	IC50 [1, 5]	IC50 [1, 6]	block of hNav1.8 channels in the inactivated state, potency relative to control (lacosamide) [1]	formalin-induced paw licking compared to saline, Phase 2 [3, 7]	also measured
COCCOC(=O)N[C@H](COC)C(=O)NCc1ccccc1 [(2R) N-benzyl-2-carboxy mPEG1 amino-3-methoxy propionamide]	> 300 µM	> 300 µM	267 µM	potency comparable to control		solubility in vehicle [2]: not readily soluble
COCCOCCOC(=O)N[C@H](COC)C(=O)NCc1ccccc1 [(2R) N-benzyl-2-carboxy mPEG2 amino-3-methoxy propionamide]	> 300 µM	> 300 µM	166 µM	potency comparable to control	showed a reduction	
COCCOCCOCCOC(=O)N[C@H](COC)C(=O)NCc1ccccc1 [(2R) N-benzyl-2-carboxy mPEG3 amino-3-methoxy propionamide]	> 300 µM	> 300 µM	239 µM	potency comparable to control	showed a reduction	
COCCOCCOCCOCCOC(=O)N[C@H](COC)C(=O)NCc1ccccc1 [(2R) N-benzyl-2-carboxy mPEG4 amino-3-methoxy propionamide]	> 300 µM	> 300 µM	> 300 µM		showed a reduction	
COCCOCCOCCOCCOCCOC(=O)N[C@H](COC)C(=O)NCc1ccccc1 [(2R) N-benzyl-2-carboxy mPEG5 amino-3-methoxy propionamide]	> 300 µM	> 300 µM	> 300 µM		showed a reduction	
COCCOCCOCCOCCOCCOCCOC(=O)N[C@H](COC)C(=O)NCc1ccccc1 [(2R) N-benzyl-2-carboxy mPEG6 amino-3-methoxy propionamide]	> 300 µM	> 300 µM	> 300 µM			
COCCOCCOCCOCCOCCOCCOCCOC(=O)N[C@H](COC)C(=O)NCc1ccccc1 [(2R) N-benzyl-2-carboxy mPEG7 amino-3-methoxy propionamide]	> 300 µM	> 300 µM	> 300 µM			
COCCOCCOCCOCCOCCOCCOCCOCCOC(=O)N[C@H](COC)C(=O)NCc1ccccc1 [(2R) N-benzyl-2-carboxy mPEG8 amino-3-methoxy propionamide]	> 300 µM	> 300 µM	> 300 µM			
COCCOCCOCCOCCOCCOCCOCCOCCOCCOC(=O)N[C@H](COC)C(=O)NCc1ccccc1 [(2R) N-benzyl-2-carboxy mPEG9 amino-3-methoxy propionamide]	> 300 µM	> 300 µM	> 300 µM			
COC[C@@H](NC(C)=O)C(=O)NCc1ccccc1 [(R)—N-benzyl-2-acetamido-3-methoxy propionamide]					greatest reduction	formalin-induced paw licking time, Phase 1 ([3]; 200 mg/kg PO, 30 min before formalin, Phase 1 (first five minutes), in words): greatest reduction; mice sedated ([3]; Phase 1): 5/7; mice with splayed posture ([3]; Phase 1): 5/7; mice sedated ([3]; Phase 2): 6/7; mice with splayed posture ([3]; Phase 2): 7/7; IC50 ([1]; IC50, type of block: 10 Hz, test pulse TP11 (frequency-dependent block at 10 Hz)): > 300 µM; IC50 ([1]; IC50, type of block: Inactivated state, test pulse TP12 (inactivated state block)): 278 µM; IC50 ([1]; IC50, type of block: Tonic, test pulse TP1 (tonic block), 5 min after test article addition): > 300 µM; solubility in vehicle [2]: not readily soluble
